Data from article PMC13172357 (Nature Communications, 2026).
“And” between values parts separate entries of the source, which are not always exact repeats. Equal entries are not always repeated.

Key:
Assay type in all cases: cell-based
[1] = molecular target: HiBiT-USP7 (Homo sapiens, UniProt Q93009); experiment: HiBiT USP7 degradation assay, MV4-11 cells; conditions: for DC50: MV4-11 HiBiT-USP7, 24 h
Experimental: HiBiT-USP7 construct was cloned by extraction of USP7 fragment from plasmid pQHA-USP7 WT puroR (Addgene #46753) using appropriate restriction sites. The USP7 fragment was then ligated into the pRRL-PGK-HiBiT entry vector to generate the plasmid.
Lentiviral infection was used to generate stable a MV4-11 HiBiT cell line. Lentivirus was produced using plasmids psPAX2, pMD2.G, and HiBiT-USP7 plasmid in HEK293 cells. MV4-11 cells were infected with filtered virus supernatant and selected after 48 h of infection for the generation of the stable MV4-11^HiBiT-USP7 cell line.
The assay was performed as described previously. Briefly, MV4-11^HiBiT-USP7 cells were seeded and treated with compounds for the indicated time. Nano-Glo HiBiT Lytic Detection System (Promega) was used for the assay and luminescence was measured on a Tecan Spark microplate reader (Tecan). DC50 values were calculated using the sigmoidal dose-response (four parameters) equation in GraphPad Prism and are given as the concentration where 50% of the total signal was remaining. Dmax values are given as the maximum degradation observed at any concentration.

[2] = molecular target: T1, USP7 (Homo sapiens, UniProt Q93009); experiment: USP7 degradation, Western blot densitometry, Panc89 cells; conditions: for USP7 degradation (in words): 24 h; for DC50: read-out: DC50 (half-maximal degradation concentration)
T1 construct: allowed the analysis of endogenous USP7 degradation in both cell lines; endogenous in cells; host or cells: Panc89 (PDAC) and Ma-Mel-47 (melanoma) cells
T1 sequence (Q93009 whole entry): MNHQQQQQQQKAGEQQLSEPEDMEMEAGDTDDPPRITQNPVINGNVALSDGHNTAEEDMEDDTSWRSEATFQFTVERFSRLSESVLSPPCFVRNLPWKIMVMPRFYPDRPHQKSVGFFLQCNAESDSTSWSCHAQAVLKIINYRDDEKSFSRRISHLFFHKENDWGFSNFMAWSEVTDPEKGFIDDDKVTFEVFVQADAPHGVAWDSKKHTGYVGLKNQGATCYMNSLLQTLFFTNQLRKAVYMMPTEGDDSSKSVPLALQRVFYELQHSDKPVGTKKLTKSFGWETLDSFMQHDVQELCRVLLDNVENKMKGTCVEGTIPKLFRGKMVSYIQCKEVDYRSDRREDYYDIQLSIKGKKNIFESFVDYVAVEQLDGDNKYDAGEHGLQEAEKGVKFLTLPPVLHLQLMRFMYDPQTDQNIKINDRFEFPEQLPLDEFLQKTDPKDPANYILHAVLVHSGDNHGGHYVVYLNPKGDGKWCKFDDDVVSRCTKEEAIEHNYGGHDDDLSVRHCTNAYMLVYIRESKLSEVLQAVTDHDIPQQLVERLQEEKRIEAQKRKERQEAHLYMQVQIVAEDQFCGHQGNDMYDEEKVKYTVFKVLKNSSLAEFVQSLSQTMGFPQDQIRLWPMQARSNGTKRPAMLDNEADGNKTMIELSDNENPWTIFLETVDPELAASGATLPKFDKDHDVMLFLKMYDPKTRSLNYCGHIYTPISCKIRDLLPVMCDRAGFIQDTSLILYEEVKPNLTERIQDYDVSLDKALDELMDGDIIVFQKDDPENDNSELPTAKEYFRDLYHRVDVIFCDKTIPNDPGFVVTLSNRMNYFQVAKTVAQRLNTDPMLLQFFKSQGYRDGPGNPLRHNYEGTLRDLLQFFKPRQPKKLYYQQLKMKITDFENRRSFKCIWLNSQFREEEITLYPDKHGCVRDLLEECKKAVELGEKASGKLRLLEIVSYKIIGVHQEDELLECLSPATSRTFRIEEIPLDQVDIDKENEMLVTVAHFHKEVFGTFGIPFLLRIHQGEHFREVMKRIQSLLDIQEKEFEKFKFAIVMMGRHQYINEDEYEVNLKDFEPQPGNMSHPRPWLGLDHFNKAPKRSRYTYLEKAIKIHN
Experimental: (§1) The melanoma cell line Ma-Mel-47 (established previously[57] from metastatic lesions from patient tumor tissues after written informed consent) and the PDAC cell line Panc89 (RRID: CVCL_4056, also referenced as T3M-4[58]) were cultured in a humidified incubator with 5% CO2 at 37 °C in RPMI1640 (Ma-Mel-47) / DMEM (Panc89) medium containing 10% (v/v) fetal calf serum (FCS) and penicillin/streptomycin (all Gibco, Thermo Fisher Scientific). Studies on human material were approved by the institutional review board. […] Testing for mycoplasma was performed by PCR monthly. To confirm cell identity, STR analysis was performed by the Microsynth Seqlab GmbH.
(§2) To prepare samples for Western blot analysis, cells were seeded in 6-well dishes the day before treatment to adhere at 70–80% confluency.
(§3) Cell pellets of all PDAC samples were lysed via adding a buffer containing 150 mM NaCl, 50 mM Tris/HCl (pH 7.4), 1% Triton X-100, 10 mM EDTA, 1 mM PMSF, 10 mM orthovanadate, and 1% aprotinin, incubating on ice for 1 h with vortexing every 15 minutes. Lysates were cleared of cell debris by centrifugation at 10,000 ×g at 4 °C for 10 min. […] Lysates were then clarified of cell debris by centrifugation at 13,000 ×g at 4 °C for 15 min. Thereafter, the total protein concentrations were either determined immediately or the protein extracts were stored at −20 or −80 °C. Pellets for samples shown in Fig. 6 and Supplementary Fig. 6 were lysed in 120 µL lysis buffer (50 mM Tris pH 8.0, 150 mM NaCl, 1% (v/v) IGEPAL, 0.5% (w/v) Na-deoxycholate, 0.1% (w/v) SDS) supplemented with 1x EDTA-free inhibitor protease cocktail (cOmplete, Roche) for 15 min at 4 °C. 0.2 µL Turbonuclease (Sigma Aldrich) and 5 mM MgCl2 were then added and lysates were incubated for 15 min at 4 °C. Cell debris was separated by centrifugation at 20,817 ×g for 15 min at 4 °C.
(§4) Protein concentrations of cell lysates were measured using the Pierce BCA Protein Assay (Thermo Fisher Scientific) or the Quick Start Bradford Protein Assay (Bio-Rad), following the manufacturers’ protocols. Measurements were recorded on Tecan Spark or Tecan Infinite M200 plate readers. Lysates were kept on ice throughout the entire process.
(§5) To separate proteins via SDS-PAGE, 10-20 µg of protein in lysis buffer was diluted with SDS-PAGE loading buffer (for most blots containing DTT or 2-mercaptoethanol) and denatured at 95 °C for 5 min. Protein separation was conducted at 95–110 V using the Mini-PROTEAN electrophoresis system (Bio-Rad). Proteins were then transferred to PVDF or nitrocellulose membranes using the Trans-Blot Turbo system (Bio-Rad) with the Trans-Blot Turbo RTA Kit for PVDF membranes. Prior to transfer, membranes were activated by soaking in 100% ethanol (for PVDF) or distilled water (for nitrocellulose) and proteins were transferred using the Mixed MW or the standard (1.0 A, 25 V, 30 min) protocol.
(§6) After transfer, membranes were blocked in 5% (w/v) milk/TBS-T for 1 h and then washed three times for 10 min with TBS-T. They were incubated overnight at 4 °C with the primary antibody in 5% (w/v) milk/TBS-T or 1% (w/v) BSA/TBS-T. Membranes were then washed three times for 10 min with TBS-T and incubated with horseradish peroxidase (HRP)-conjugated secondary antibodies in a solution of 5% (w/v) BSA/TBS-T or 1% (w/v) milk/TBS-T for 1 h at room temperature. PBS-T was used for blots shown in Fig. 6 and Supplementary Fig. 6.
(§7) Membranes were incubated with Clarity Western ECL substrate (Bio-Rad) for PDAC samples or Pierce ECL Western Blotting-Substrate (Thermo Fisher Scientific) for melanoma. Chemiluminescent signals were detected with a ChemiDoc Imaging System (Bio-Rad) for PDAC samples or with a ECL Chemostar Imager (Intas Science Imaging) for melanoma samples.
(§8) Densitometric quantification of band intensities for Fig. 2c, d was performed using the ImageJ software.

[3] = molecular target: T1, USP7; experiment: USP7 degradation, Western blot densitometry, Ma-Mel-47 cells; conditions: for USP7 levels in time course (in words): over 24 h; for USP7 degradation (in words): 24 h; for DC50: read-out: DC50 (half-maximal degradation concentration)
Experimental: as §1, §2, §3, §4, §5, §6, §7, §8

[4] = MV4-11, MV4-11 HiBiT-USP7, 24 h
[5] = Panc89, 24 h, Western blot densitometry
[6] = Ma-Mel-47, 24 h, Western blot densitometry

HiBiT-USP7, sequence (Q93009 whole entry, the tested form may be a part): as the sequence (Q93009 whole entry) above

| Compound | HiBiT-USP7 levels (in words) ([1]; MV4-11 HiBiT-USP7, 6 h and 24 h) | USP7 levels in time course (in words) ([2]; Panc89, 1 µM, over 24 h) | USP7 levels in time course (in words) ([3]; Ma-Mel-47, 1 µM) | Dmax ([1]; MV4-11, MV4-11 HiBiT-USP7, 6 h) [%] | Dmax [1, 4] [%] | DC50 [1] [µM] | USP7 degradation (in words) ([2]; Panc89, 5 µM, Western blot) | Concentration of near complete degradation of USP7 ([2]; Panc89, 24 h) [nM] | Dmax [2, 5] [%] | DC50 [2, 5] [µM] | USP7 degradation (in words) ([3]; Ma-Mel-47, 1 µM) | DC50 [3, 6] [µM] | Time after which USP7 degradation was observed ([2]; Panc89, 1 µM) | USP7 degradation (in words) ([2]; Panc89, increasing concentrations) | Time after which USP7 degradation was observed ([3]; Ma-Mel-47, 1 µM) [h] | USP7 degradation (in words) ([3]; Ma-Mel-47, 5 µM, Western blot) | Dmax [3, 6] [%] |
| --- | --- | --- | --- | --- | --- | --- | --- | --- | --- | --- | --- | --- | --- | --- | --- | --- | --- |
| Cc1ncsc1-c1ccc(CNC(=O)[C@@H]2C[C@H](O)CN2C(=O)[C@@H](NC(=O)[C@H]2CC[C@H](C(=O)N3CCN(c4ccc(-n5ncc6c(=O)n(CC7(O)CCN(C(=O)C[C@@H](C)c8ccccc8)CC7)cnc65)cc4)CC3)CC2)C(C)(C)C)cc1 [NK245] | partial reduction of USP7 levels | did not reduce protein levels | did not reduce protein levels |  |  |  |  |  |  |  |  |  |  |  |  |  |  |
| Cc1ncsc1-c1ccc([C@H](C)NC(=O)[C@@H]2C[C@@H](O)CN2C(=O)[C@@H](NC(=O)[C@H]2CC[C@H](C(=O)N3CCN(c4ccc(-n5ncc6c(=O)n(CC7(O)CCN(C(=O)C[C@@H](C)c8ccccc8)CC7)cnc65)cc4)CC3)CC2)C(C)(C)C)cc1 [NK250] |  |  | weak effects | 87 | 90 to 92 | 0.004 | complete degradation | ~100 | 98 | 0.008 | not able to fully degrade USP7 | 0.154 ± 0.038 |  |  |  |  |  |
| Cc1ncsc1-c1ccc([C@H](C)NC(=O)[C@@H]2C[C@@H](O)CN2C(=O)[C@@H](NC(=O)C23C4C5C2C2C3C4C52C(=O)N2CCC(C3CCN(c4ccc(-n5ncc6c(=O)n(CC7(O)CCN(C(=O)C[C@@H](C)c8ccccc8)CC7)cnc65)cc4)CC3)CC2)C(C)(C)C)cc1 (some centres unmarked) [NK266] |  |  |  | 74 | 90 to 92 | 0.024 |  |  |  | 0.049 |  | 0.029 | 16 h and 16 to 24 h | near complete degradation of USP7 | 16 | higher potency | 94 |
